Experimental findings from patent publication US8163771B2, “11 β-HSD1 modulators” (Exelixis, Inc., priority 2008, dated 2012) are described below.

One may read the IC50 as the concentration that inhibits the measured activity by half.

This test concerns the target T1, recombinant human 11 β-HSD1 (Homo sapiens, UniProt P28845).
T1 construct: made in house; host or cells: E. coli
The test can be described thus: 11 β-HSD1 SPA Assay (Scintillation Proximity Assay). The class given is biochemical. An outline of the steps:
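E. coli-expressed human enzyme (30-100 nM) with tritiated cortisone 40 nM and NADPH 1 mM in HEPES buffer pH7.4, 2 hours at room temperature. Stopped with protein A SPA beads carrying anti-cortisol antibody and glycyrrhetinic acid; counted after overnight incubation. IC50 from percent inhibition between no-enzyme and no-compound signals.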

T1 sequence (P28845 whole entry): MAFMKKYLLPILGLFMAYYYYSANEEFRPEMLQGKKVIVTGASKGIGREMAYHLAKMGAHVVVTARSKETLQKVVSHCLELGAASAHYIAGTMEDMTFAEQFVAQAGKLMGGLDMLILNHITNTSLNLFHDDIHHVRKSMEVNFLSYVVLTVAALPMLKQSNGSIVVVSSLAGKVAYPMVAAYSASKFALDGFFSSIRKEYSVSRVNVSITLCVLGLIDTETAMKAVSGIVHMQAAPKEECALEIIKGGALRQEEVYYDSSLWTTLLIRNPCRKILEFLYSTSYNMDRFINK

With `CC(C)(Oc1cc(F)c(F)cc1Cl)C(=O)N[C@H]1C[C@H]2CC[C@@H](C1)N2c1ccc(S(C)(=O)=O)cn1` [Example 231, 2-[(2-chioro-4,5-difluorophenyl)oxy]-2-methyl-N-{8-[5-(methylsulfonyl)pyridin-2-yl]-8-azabicyclo[3.2.1]oct-3-endo-yl}propanamide], the IC50 was below 200 nM.

As to `CC(C)(Oc1cc(F)c(F)cc1F)C(=O)N[C@H]1C[C@H]2CC[C@@H](C1)N2c1ccc(S(C)(=O)=O)cn1` [Example 232, 2-methyl-N-{8-[5-(methylsulfonyl)pyridin-2-yl]-8-azabicyclo[3.2.1]oct-3-endo-yl}-2-[(2,4,5-trifluorophenyl)oxy]propanamide], the 50% inhibitory concentration (IC50) was below 200 nM.

Consider `CC(C)(Oc1ccc(F)cc1)C(=O)N[C@H]1C[C@H]2CC[C@@H](C1)N2c1ccc(S(C)(=O)=O)cc1` [Example 233, 2-[(4-fluorophenyl)oxy]-2-methyl-N-{8-[4-(methylsulfonyl)phenyl]-8-azabicyclo[3.2.1]oct-3-endo-yl}propanamide], for which the IC50 is below 2000 nM.

With `CC(C)(Oc1cc(F)c(F)cc1F)C(=O)N[C@H]1C[C@H]2CC[C@@H](C1)N2c1ccc(S(C)(=O)=O)cc1` [Example 234, 2-methyl-N-{8-[4-(methylsulfonyl)phenyl]-8-azabicyclo[3.2.1]oct-3-endo-yl}-2-[(2,4,5-trifluorophenyl)oxy]propanamide], the IC50 was below 2000 nM.

In the case of `CC(C)(Oc1ccc(F)c(Cl)c1Cl)C(=O)N[C@H]1C[C@H]2CC[C@@H](C1)N2c1ccc(S(C)(=O)=O)cc1` [Example 235, 2-[(2,3-dichloro-4-fluorophenyl)oxy]-2-methyl-N-{8-[4-(methylsulfonyl)phenyl]-8-azabicyclo[3.2.1]oct-3-endo-yl}propanamide], the IC50 was below 200 nM.

Regarding `CC(C)(Oc1cc(F)c(Cl)cc1Cl)C(=O)N[C@H]1C[C@H]2CC[C@@H](C1)N2c1ccc(S(C)(=O)=O)cn1` [Example 236, 2-[(2,4-dichloro-5-fluorophenyl)oxy]-2-methyl-N-{8-[5-(methylsulfonyl)pyridin-2-yl]-8-azabicyclo[3.2.1]oct-3-endo-yl}propanamide], the IC50 was below 200 nM.

For the compound `CC(C)(Oc1cc(F)c(Cl)cc1Cl)C(=O)N[C@H]1C[C@H]2CC[C@@H](C1)N2c1ccc(S(C)(=O)=O)cc1` [Example 237, 2-[(2,4-dichloro-5-fluorophenyl)oxy]-2-methyl-N-{8-[4-(methylsulfonyl)phenyl]-8-azabicyclo[3.2.1]oct-3-endo-yl}propanamide], the IC50 was below 200 nM.

`CC(C)(Oc1c(Cl)cc(F)cc1Cl)C(=O)N[C@H]1C[C@H]2CC[C@@H](C1)N2c1ccc(S(N)(=O)=O)cn1` [Example 238, N-{8-[5-(aminosulfonyl)pyridin-2-yl]-8-azabicyclo[3.2.1]oct-3-endo-yl}-2-[(2,6-dichloro-4-fluorophenyl)oxy]-2-methylpropanamide]: the IC50 was below 200 nM.

With `CC(C)(Oc1c(Cl)cc(F)cc1Cl)C(=O)N[C@H]1C[C@H]2CC[C@@H](C1)N2c1ccc(S(C)(=O)=O)cc1` [Example 239, 2-[(2,6-dichloro-4-fluorophenyl)oxy]-2-methyl-N-{8-[4-(methylsulfonyl)phenyl]-8-azabicyclo[3.2.1]oct-3-endo-yl}propanamide], the IC50 was below 200 nM.

As for `CC(C)(Oc1ccc(Cl)c(F)c1)C(=O)N[C@H]1C[C@H]2CC[C@@H](C1)N2c1ccc(S(C)(=O)=O)cn1` [Example 240, 2-[(4-chloro-3-fluorophenyl)oxy]-2-methyl-N-{8-[5-(methylsulfonyl)pyridin-2-yl]-8-azabicyclo[3.2.1]oct-3-endo-yl}propanamide], the IC50 was below 200 nM.

With `CC(C)(Oc1ccc(Cl)c(F)c1)C(=O)N[C@H]1C[C@H]2CC[C@@H](C1)N2c1ccc(S(C)(=O)=O)cc1` [Example 241, 2-[(4-chloro-3-fluorophenyl)oxy]-2-methyl-N-{8-[4-(methylsulfonyl)phenyl]-8-azabicyclo[3.2.1]oct-3-endo-yl}propanamide], the 50% inhibitory concentration (IC50) is below 2000 nM.
